According to patent US12378247B2, “Mesylate salt of para-topolin, compositions containing said salt and use thereof” (USTAV EXPERIMENTALNI BOTANIKY AV CR, V. V. I., priority 2020, dated 2025):
Where a name gives a salt, the structure may show the parent alone.

What was measured:
[1] = Calcein AM cytotoxicity assay, RPMI 8226; format: cell-based; settings: human, RPMI 8226 cells (multiple myeloma); RPMI 8226, 3-day Calcein-AM assay; read-out: Cytotoxic activity IC50
Text: (§1) Because toxic compounds negatively influence metabolic processes of cells, many standard cytotoxicity assays are based on measurement of metabolisation rate of various artificial substrates. Resulting product is then quantified, for example, by means of spectrometry. The assays can be easily modified for use in 96-well plates. For evaluation of cytotoxicity of the […] of this invention, a microtiter assay based on quantification of metabolisation of Calcein AM was used. The assay is widely used in drug screening programs and in chemosensitivity testing. In live cells, Calcein AM is enzymatically hydrolysed and accumulation of the resulting calcein is manifested by green fluorescence. […]
(§2) Approximately 10,000 cells in 80 μL of medium were seeded into 96-well microtitre plates. […] The fluorescence of free calcein was then quantified using a Fluoroscan Ascent fluorometer (Microsystems), and the percentage of surviving cells in each well was calculated by dividing the OD obtained from each cell with exposed cells by the mean OD obtained from control wells×100%. […]

[2] = Pharmacokinetics / bioavailability upon intraduodenal administration in rats; format: in vivo, male Sprague-Dawley rats; settings: rat
Procedure: Preparation of Dosing Solutions for In-Vivo Study: Para-topolin and para-topolin mesylate salt were stored at room temperature under desiccant and protected from light. The dosing solutions were prepared fresh from powders on the day of dosing. The dosing solution for intravenous administration (IV) was prepared at 1 mg/mL (free acid) in 50:50 DMSO: saline. The dosing solution for intraduodenal administration (ID) was prepared at 2 mg/mL in a 0.2% sodium carboxymethyl cellulose (Na CMC) aqueous solution.
Administration to Animals: The pharmacokinetics of para-topolin base and mesylate was evaluated in fasted male Sprague-Dawley rats. […]
Each blood sample was collected from the rats via a jugular vein cannula and placed into chilled polypropylene tubes containing sodium heparin as an anticoagulant. […] The total concentration of para-topolin in plasma samples were analyzed by LC-MS/MS after an overnight incubation with glucuronidase/arylsulfatase enzyme mixture. Pharmacokinetic parameters were calculated using the WinNonlin software.
Analysis of Plasma Samples: An LC-MS/MS analytical method for the determination of […] in rat plasma was developed (Novák et al., Phytochemistry, 69, 2008:2214-2224). Prior to sample analysis, a standard curve was analyzed to determine the specificity, range, and linearity of the method. […]

[3] = Calcein AM cytotoxicity assay, G361; format: cell-based; settings: human, G361 cells (malignant melanoma); G361, 3-day Calcein-AM assay; read-out: Cytotoxic activity IC50
Text: as §1, §2

[4] = test system: RPMI 8226 (multiple myeloma); experiment: Calcein AM cytotoxicity assay, RPMI 8226; format: cell-based; settings: RPMI 8226, 3-day Calcein-AM assay; read-out: Cytotoxic activity IC50
Text: as §1, §2

[5] = test system: G361 (malignant melanoma); experiment: Calcein AM cytotoxicity assay, G361; format: cell-based; settings: G361, 3-day Calcein-AM assay; read-out: Cytotoxic activity IC50
Text: as §1, §2

## Oc1ccc(CNc2ncnc3nc[nH]c23)cc1 [para-topolin mesylate, 6-(4-hydroxybenzylamino) purine (para-topolin) mesylate (methylsulphonate)]
[1]
  IC50 at 72 h: > 167 µM
[2]
  time after ID dosing at which Cmax was observed: ≤ 15 min
[3]
  IC50 at 72 h: > 167 µM

## Oc1ccc(CNc2ncnc3nc[nH]c23)cc1 [para-topolin, 6-(4-Hydroxybenzylamino) purine]
[4]
  IC50: > 167 µM
[5]
  IC50: > 167 µM
